# According to US9833497B2, “Human originated EGF domain proteins and use of the same” (CHENGDU SOURCEBIO LIMITED-LIABILITY COMPANY, priority 2013, dated 2017):
# Tested on: E. coli DH5α
# Test: Antibacterial activity: MIC and growth curve against E. coli DH5α in 96-well plate
# Assay type: cell-based
# Details: minimal inhibitory concentration against E. coli DH5α; 96-well plate, 5×10^5 CFU/mL, 37° C., judged after 8 h
# Procedure, shortened: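 Log-phase bacteria (OD600 ~0.5) resuspended in LB at 5×10^5 CFU/mL, exposed to recombinant protein at 50, 25, 12.5 μg/mL final in triplicate, 37 °C shaking at 175 rpm. OD600 read every 30 min; MIC is lowest concentration showing no growth.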
row,Substance,MIC
1,PRT1022 (DIDECSEQPSVCGSHTICNNHPGTFRCECVEGYQFSDEGTCV; listed as Homo sapiens),12.5 µg/mL
2,PRT1158 (IQTSCESFPLRNNATCKKCEKDYPCSCISGFTEKNCE; listed as Homo sapiens),25 µg/mL
3,PRT10 (NCSAQCHNHGVCNHKQECHCHAGWAPPHCA; listed as Homo sapiens),25 µg/mL

# Tested on: E. coli BL21
# Test: MIC against Gram-negative bacteria: E. coli BL21
# Assay type: cell-based
# Details: 10 h cultivation at 37° C., 5×10^5 CFU/mL, two-fold serial dilution
# Procedure, shortened: (§1)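 The recombinant human-originated EGF domain proteins were serially diluted two-fold against bacteria at 5×10^5 CFU/mL in LB medium. After shaken incubation at 37° C, the lowest concentration with no bacterial growth was recorded as the MIC.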
row,Substance,MIC E. coli BL21
1,PRT1158 (IQTSCESFPLRNNATCKKCEKDYPCSCISGFTEKNCE; listed as Homo sapiens),12.5 µg/mL

# Same assay, conditions: E. coli BL21; 96-well plate, 5×10^5 CFU/mL, 37° C., 10 h
row,Substance,MIC (μg/mL) E. coli BL21
1,PRT10 (NCSAQCHNHGVCNHKQECHCHAGWAPPHCA; listed as Homo sapiens),50 µg/mL

# Same assay, conditions: E. coli BL21; 10 h cultivation at 37° C.
row,Substance,MIC
1,PRT1022 (DIDECSEQPSVCGSHTICNNHPGTFRCECVEGYQFSDEGTCV; listed as Homo sapiens),50 µg/mL

# Tested on: Pseudomonas aeruginosa
# Test: MIC against Gram-negative bacteria: Pseudomonas aeruginosa
# Assay type: cell-based
# Details: 10 h cultivation at 37° C., 5×10^5 CFU/mL, two-fold serial dilution
# Procedure, shortened: as §1
row,Substance,MIC P. aeruginosa
1,PRT1158 (IQTSCESFPLRNNATCKKCEKDYPCSCISGFTEKNCE; listed as Homo sapiens),25 µg/mL

# Same assay, conditions: P. aeruginosa; 10 h cultivation at 37° C.
row,Substance,MIC
1,PRT1022 (DIDECSEQPSVCGSHTICNNHPGTFRCECVEGYQFSDEGTCV; listed as Homo sapiens),12.5 µg/mL

# Same assay, conditions: Pseudomonas aeruginosa; 96-well plate, 5×10^5 CFU/mL, 37° C., 10 h
row,Substance,MIC (μg/mL) P. aeruginosa
1,PRT10 (NCSAQCHNHGVCNHKQECHCHAGWAPPHCA; listed as Homo sapiens),12.5 µg/mL

# Tested on: Klebsiella pneumonia
# Test: MIC against Gram-negative bacteria: Klebsiella pneumonia
# Assay type: cell-based
# Details: 10 h cultivation at 37° C., 5×10^5 CFU/mL, two-fold serial dilution
# Procedure, shortened: as §1
row,Substance,MIC K. pneumonia
1,PRT1158 (IQTSCESFPLRNNATCKKCEKDYPCSCISGFTEKNCE; listed as Homo sapiens),50 µg/mL

# Same assay, conditions: K. pneumonia; 10 h cultivation at 37° C.
row,Substance,MIC
1,PRT1022 (DIDECSEQPSVCGSHTICNNHPGTFRCECVEGYQFSDEGTCV; listed as Homo sapiens),25 µg/mL

# Same assay, conditions: Klebsiella pneumonia; 96-well plate, 5×10^5 CFU/mL, 37° C., 10 h
row,Substance,MIC (μg/mL) K. pneumonia
1,PRT10 (NCSAQCHNHGVCNHKQECHCHAGWAPPHCA; listed as Homo sapiens),50 µg/mL

# Tested on: Enterobacter cloacae
# Test: MIC against Gram-negative bacteria: Enterobacter cloacae
# Assay type: cell-based
# Details: 10 h cultivation at 37° C., 5×10^5 CFU/mL, two-fold serial dilution
# Procedure, shortened: as §1
row,Substance,MIC E. cloacae
1,PRT1158 (IQTSCESFPLRNNATCKKCEKDYPCSCISGFTEKNCE; listed as Homo sapiens),12.5 µg/mL

# Same assay, conditions: E. cloacae; 10 h cultivation at 37° C.
row,Substance,MIC
1,PRT1022 (DIDECSEQPSVCGSHTICNNHPGTFRCECVEGYQFSDEGTCV; listed as Homo sapiens),25 µg/mL

# Same assay, conditions: Enterobacter cloacae; 96-well plate, 5×10^5 CFU/mL, 37° C., 10 h
row,Substance,MIC (μg/mL) E. cloacae
1,PRT10 (NCSAQCHNHGVCNHKQECHCHAGWAPPHCA; listed as Homo sapiens),12.5 µg/mL

# Tested on: Aeromonas hydrophila
# Test: MIC against Gram-negative bacteria: Aeromonas hydrophila
# Assay type: cell-based
# Details: 10 h cultivation at 37° C., 5×10^5 CFU/mL, two-fold serial dilution
# Procedure, shortened: as §1
row,Substance,MIC A. hydrophila
1,PRT1158 (IQTSCESFPLRNNATCKKCEKDYPCSCISGFTEKNCE; listed as Homo sapiens),50 µg/mL

# Same assay, conditions: A. hydrophila; 10 h cultivation at 37° C.
row,Substance,MIC
1,PRT1022 (DIDECSEQPSVCGSHTICNNHPGTFRCECVEGYQFSDEGTCV; listed as Homo sapiens),25 µg/mL

# Same assay, conditions: Aeromonas hydrophila; 96-well plate, 5×10^5 CFU/mL, 37° C., 10 h
row,Substance,MIC (μg/mL) A. hydrophila
1,PRT10 (NCSAQCHNHGVCNHKQECHCHAGWAPPHCA; listed as Homo sapiens),50 µg/mL

# Tested on: Citrobacter diversus
# Test: MIC against Gram-negative bacteria: Citrobacter diversus
# Assay type: cell-based
# Details: 10 h cultivation at 37° C., 5×10^5 CFU/mL, two-fold serial dilution
# Procedure, shortened: as §1
row,Substance,MIC C. diversus
1,PRT1158 (IQTSCESFPLRNNATCKKCEKDYPCSCISGFTEKNCE; listed as Homo sapiens),12.5 µg/mL

# Same assay, conditions: C. diversus; 10 h cultivation at 37° C.
row,Substance,MIC
1,PRT1022 (DIDECSEQPSVCGSHTICNNHPGTFRCECVEGYQFSDEGTCV; listed as Homo sapiens),50 µg/mL

# Same assay, conditions: Citrobacter diversus; 96-well plate, 5×10^5 CFU/mL, 37° C., 10 h
row,Substance,MIC (μg/mL) C. diversus
1,PRT10 (NCSAQCHNHGVCNHKQECHCHAGWAPPHCA; listed as Homo sapiens),25 µg/mL

# Tested on: Moraxella catarrhalis
# Test: MIC against Gram-negative bacteria: Moraxella catarrhalis
# Assay type: cell-based
# Details: 10 h cultivation at 37° C., 5×10^5 CFU/mL, two-fold serial dilution
# Procedure, shortened: as §1
row,Substance,MIC M. catarrhalis
1,PRT1158 (IQTSCESFPLRNNATCKKCEKDYPCSCISGFTEKNCE; listed as Homo sapiens),50 µg/mL

# Same assay, conditions: M. catarrhalis; 10 h cultivation at 37° C.
row,Substance,MIC
1,PRT1022 (DIDECSEQPSVCGSHTICNNHPGTFRCECVEGYQFSDEGTCV; listed as Homo sapiens),12.5 µg/mL

# Same assay, conditions: Moraxella catarrhalis; 96-well plate, 5×10^5 CFU/mL, 37° C., 10 h
row,Substance,MIC (μg/mL) M. catarrhalis
1,PRT10 (NCSAQCHNHGVCNHKQECHCHAGWAPPHCA; listed as Homo sapiens),12.5 µg/mL

# Tested on: Proteus mirabilis
# Test: MIC against Gram-negative bacteria: Proteus mirabilis
# Assay type: cell-based
# Details: 10 h cultivation at 37° C., 5×10^5 CFU/mL, two-fold serial dilution
# Procedure, shortened: as §1
row,Substance,MIC P. mirabilis
1,PRT1158 (IQTSCESFPLRNNATCKKCEKDYPCSCISGFTEKNCE; listed as Homo sapiens),12.5 µg/mL

# Same assay, conditions: P. mirabilis; 10 h cultivation at 37° C.
row,Substance,MIC
1,PRT1022 (DIDECSEQPSVCGSHTICNNHPGTFRCECVEGYQFSDEGTCV; listed as Homo sapiens),50 µg/mL

# Same assay, conditions: Proteus mirabilis; 96-well plate, 5×10^5 CFU/mL, 37° C., 10 h
row,Substance,MIC (μg/mL) P. mirabilis
1,PRT10 (NCSAQCHNHGVCNHKQECHCHAGWAPPHCA; listed as Homo sapiens),12.5 µg/mL

# Tested on: Proteus vulgaris
# Test: MIC against Gram-negative bacteria: Proteus vulgaris
# Assay type: cell-based
# Details: 10 h cultivation at 37° C., 5×10^5 CFU/mL, two-fold serial dilution
# Procedure, shortened: as §1
row,Substance,MIC P. vulgaris
1,PRT1158 (IQTSCESFPLRNNATCKKCEKDYPCSCISGFTEKNCE; listed as Homo sapiens),50 µg/mL

# Same assay, conditions: P. vulgaris; 10 h cultivation at 37° C.
row,Substance,MIC
1,PRT1022 (DIDECSEQPSVCGSHTICNNHPGTFRCECVEGYQFSDEGTCV; listed as Homo sapiens),12.5 µg/mL

# Same assay, conditions: Proteus vulgaris; 96-well plate, 5×10^5 CFU/mL, 37° C., 10 h
row,Substance,MIC (μg/mL) P. vulgaris
1,PRT10 (NCSAQCHNHGVCNHKQECHCHAGWAPPHCA; listed as Homo sapiens),25 µg/mL

# Tested on: Serratia marcescens
# Test: MIC against Gram-negative bacteria: Serratia marcescens
# Assay type: cell-based
# Details: 10 h cultivation at 37° C., 5×10^5 CFU/mL, two-fold serial dilution
# Procedure, shortened: as §1
row,Substance,MIC S. marcescens
1,PRT1158 (IQTSCESFPLRNNATCKKCEKDYPCSCISGFTEKNCE; listed as Homo sapiens),25 µg/mL

# Same assay, conditions: S. marcescens; 10 h cultivation at 37° C.
row,Substance,MIC
1,PRT1022 (DIDECSEQPSVCGSHTICNNHPGTFRCECVEGYQFSDEGTCV; listed as Homo sapiens),12.5 µg/mL

# Same assay, conditions: Serratia marcescens; 96-well plate, 5×10^5 CFU/mL, 37° C., 10 h
row,Substance,MIC (μg/mL) S. marcescens
1,PRT10 (NCSAQCHNHGVCNHKQECHCHAGWAPPHCA; listed as Homo sapiens),12.5 µg/mL
